Experiment [1] deals with T1, Arid5a binding to OX40 ADE-like stem loop (Mus musculus, UniProt Q3U108).
T1 construct: expressed in transfected cells; host or cells: HEK293T (cell lysate)
T1 sequence (Q3U108 1-590): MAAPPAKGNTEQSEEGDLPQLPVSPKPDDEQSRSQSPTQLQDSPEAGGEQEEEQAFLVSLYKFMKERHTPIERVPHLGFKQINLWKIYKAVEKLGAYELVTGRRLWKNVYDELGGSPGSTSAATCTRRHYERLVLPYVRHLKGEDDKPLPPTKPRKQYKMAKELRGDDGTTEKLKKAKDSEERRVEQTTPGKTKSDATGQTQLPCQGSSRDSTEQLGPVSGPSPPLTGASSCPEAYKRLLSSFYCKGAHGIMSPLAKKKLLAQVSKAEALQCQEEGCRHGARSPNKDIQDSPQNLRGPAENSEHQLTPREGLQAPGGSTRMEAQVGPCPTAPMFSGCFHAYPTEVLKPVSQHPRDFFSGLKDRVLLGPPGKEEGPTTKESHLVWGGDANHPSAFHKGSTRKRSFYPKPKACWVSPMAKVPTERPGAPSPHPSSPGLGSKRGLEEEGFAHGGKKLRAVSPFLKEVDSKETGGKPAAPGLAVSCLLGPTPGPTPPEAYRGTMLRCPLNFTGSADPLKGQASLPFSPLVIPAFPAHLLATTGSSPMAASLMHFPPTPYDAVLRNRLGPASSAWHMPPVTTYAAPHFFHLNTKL
Nature of the experiment: RNA-Arid5a binding assay. The conditions noted are these: Flag-Arid5a-enriched HEK293T lysate, immunoblot, FIG. 4. Here is the method: An RNA-protein binding assay was performed to confirm that POE inhibits the physical binding of Arid5a to the (ADE)-like stem loop in the OX40 3′UTR. Briefly, a 3′-biotinylated OX40 ADE-like stem loop (RNA; 5′-[…]-3′) (SEQ ID NO: 2) was conjugated to streptavidin beads. The OX40 ADE-like stem loop/streptavidin bead conjugate was then mixed with Flag-Arid5a-enriched HEK293T cell lysate, washed, and proteins bound to RNA were eluted for immunoblot. Anti-Flag antibodies were used to detect Flag-Arid5a in the eluate by SDS-PAGE analysis.

Experiment [2] relates to differentiated Th17 cells. Put plainly: Th17 differentiation of naïve CD4+CD62L+ T cells. It is filed as cell-based, mice. The conditions noted are these: 40 μM, 72 h. The procedure: The peritoneal macrophages were stimulated in vitro with 0.5 μg/mL lipopolysaccharides (LPS) (Sigma-Aldrich) for 24 h. The CD4^+ CD62L^+ T cells were isolated and purified from spleen using the MACS isolation kit (Miltenyi). The T cells were cultured in the presence of anti-CD3/CD28 dynabeads (Invitrogen), recombinant mouse IL-6 (30 ng/mL; R&D Systems), recombinant transforming growth factor-β (TGF-β) (4 ng/mL; R&D Systems), anti-interferon-γ (IFN-γ) and anti-IL-4 (10 μg/mL; Biolegend) for 72 h to generate Th17 cells.
The mRNAs and cytokines were quantified as follows. A first strand of cDNA was synthesized from total RNA by using the TaqMan reverse transcription kit. The cDNA was amplified in the real-time PCR system ViiA7 using TaqMan gene expression assays of OX40 (Mm01261022_m1), Stat3 (Mm01219775_m1) and the endogenous control Gapdh (Mm99999915_g1). Kits, probes and reagents were from Applied Biosystems. The relative expression of mRNAs was calculated by ΔΔCt method. For cytokines quantification in serum and cell culture supernatants, ELISA kits of IL-17a, IL-6, TNF-α (Invitrogen) were used following the manufacturer's instructions.
Flow cytometry analysis was conducted using CD4^+ T cells cultured under Th17 cell-inducing conditions or CD4^+ T cells derived from CNS, which were fixed and stained with Per-CP-Cy5.5-conjugated anti-CD4 antibodies and PE-conjugated anti-OX40 antibodies (Biolegend). Analysis was carried out using Flowsight (Amnis).
The anti-inflammatory activity of the Arid5a inhibitor POE was tested in vitro by measuring secretion of pro-inflammatory cytokines by macrophages and differentiated Th17 cells. Briefly, peritoneal macrophages were stimulated with LPS (0.5 μg/mL) for 24 h in presence or absence of POE (40 μM). […] The percentage of CD4^+OX40^+ T cells in the polarized Th17 cells was determined using flow cytometry; the results are shown in FIG. 3D. Stat3 mRNA expression in the polarized Th17 cells was quantified by real-time PCR and normalized to Gapdh mRNA; the results are shown relative to those of untreated Th17 cells in FIG. 3E.

Experiment [3] has as its target T2, Arid5a (Mus musculus, UniProt Q3U108).
T2 construct: Flag; expressed in transfected cells; host or cells: HEK293T
T2 sequence (Q3U108 1-590): T1 sequence (Q3U108 1-590)
Put plainly: Luciferase assay of Arid5a stabilizing function on 3′UTR of target mRNAs in HEK293T cells. It is filed as cell-based. The procedure: Briefly, HEK293T cells were transfected with luciferase pGL-3 and empty pcDNA3.1 plasmids (Control), or pGL-3 plasmid encoding the 3′UTR of OX40, Il6 or Stat3, together with Arid5a-expressing pcDNA3.1 plasmid. The cells were treated with DMSO (Control and Arid5a) or POE (10-60 μM) dissolved in DMSO. The mouse Arid5a (NP_001165676.1) cDNA (WT; ENSMUST00000115032.7) was cloned in a Flag-tagged pcDNA3.1 plasmid at Xba1 and Ecor1. Renilla-expressing plasmid was used as a control. Luciferase activity from cell lysates is shown relative to Control in FIGS. 1A-1C.
HEK293 T cells (ATCC) were transfected (Lipofectamine LTX; Invitrogen) with luciferase pGL-3 and empty peDNA 3.1 plasmids (Control), or pGL-3 plasmid encoding the 3′UTR of IL6 together with Arid5a-expressing pcDNA3.1 plasmid. Renila-expressing plasmid was used as a Control. The cells were treated with DMSO (Control and Arid5a) or POE or its analogs A1-3 (40 μM; Aurora) dissolved in DMSO. The mouse Arid5a (NP_001165676.1) cDNA (WT; ENSMUST00000115032.7) was cloned in a Flag-tagged pcDNA3.1 plasmid at Xba1 and EcoR1.
To examine whether the Arid5a inhibitors interact with the target domain of Arid5a (Pocket X), substitution mutations were introduced to the wild-type (WT) Arid5a at Phe56, Tyr137 and His140 to produce mutant Arid5a (mArid5a). Mutations were introduced to substitute Phe56 with Cys, Tyr137 with Ala, and His140 with Ala. Luciferase activity from cell lysates was quantified using a Dual Luciferase kit (Promega) and the results were shown relative to the Control.

Molecules are shown by their SMILES.

`O=C(CSc1nnc(-c2ccncc2)o1)c1ccccc1` [POE, 1-Phenyl-2-(5-pyridin-4-yl-[1,3,4]oxadiazol-2-ylsulfanyl)-ethanone]: the “Physical binding of Arid5a to OX40 ADE-like stem loop” value in experiment [1] was “inhibited the physical binding of Arid5a to OX40 ADE-like stem loop in a concentration-dependent manner”. The “Level of IL-17 in cell culture supernatant of polarized Th17 cells” value in experiment [2] (compared to untreated Th17 cells, FIG. 3C) is recorded as “reduces the level of IL-17”. Further, in experiment [2] (flow cytometry, FIG. 3D), the “Frequency of CD4+OX40+ T cells in polarized Th17 cells” value is “reduces the frequency of CD4^+OX40^+ T cells”. For the same molecule, in experiment [2] (real-time PCR normalized to Gapdh, FIG. 3E), the “Expression of Stat3 mRNA in polarized Th17 cells” value is “reduces the expression of Stat3 mRNA”. For the same molecule, in experiment [3] (40 μM, HEK293 T cells, WT Arid5a, FIG. 6), the “Arid5a stabilizing function on Il6 3′UTR (luciferase activity relative to Control)” value was “abolished the stabilizing function of Arid5a”. The “Arid5a stabilizing function on the OX40 3′UTR (luciferase activity relative to Control)” value in experiment [3] (POE 10-60 μM, HEK293T cells, FIG. 1A) was “inhibits Arid5a stabilizing function”. Besides, the “Arid5a stabilizing function on the Il6 3′UTR (luciferase activity relative to Control)” value in experiment [3] (POE 10-60 μM, HEK293T cells, FIG. 1B) is “inhibits Arid5a stabilizing function”. The “Arid5a stabilizing function on the Stat3 3′UTR (luciferase activity relative to Control)” value in experiment [3] (POE 10-60 μM, HEK293T cells, FIG. 1C) is “inhibits Arid5a stabilizing function”.

Values taken from patent US11654138B2, “Therapeutic agents for treating and preventing autoimmune diseases and cancer and a screening method” (KING FAISAL UNIVERSITY, priority 2019, dated 2023).
